Like-named read-outs stand apart in the source and are kept apart here.
What was measured:
[1] = Solubility observed on isolation; format: physicochemical
Experimental: A solution of 3.95 g (25 mmoles) of 2-bromopyridine in 20 ml of dry pentane was added dropwise to 10 ml. of 2.5M butylithium in hexane at -78°C. To the resulting yellow slurry was added dropwise with stirring 1.75 g (12.5 mmoles) of 1,4-diazidobutane in 10 ml. of pentane. Stirring was continued for 2 hr. at -78° and then the reaction mixture was allowed to warm to room temperature. The reaction mixture was treated with 60 ml. of ammonium buffer which caused a precipitate to appear after the reaction was cooled to -78°C. The solid was filtered off. […] The yield was 2.3 g., m.p. 133-136. Spectroscopic data were consistent with the structure.
A solution of butyllithium in hexane (5 ml., 2.5M) was dissolved in 10 ml. of tetrahydrofuran and cooled to -78°C. To this was added dropwise with stirring a solution of 1.98 g (12.5 mmoles) of 2-bromopyridine in 10 ml. of tetrahydrofuran. The dark yellow solution of the pyridine anion was mixed with a solution of 0.70 g (6.2 mmoles) of 1,2-diazidoethane in 10 ml. of tetrahydrofuran at -78°C. After 1 hr. of stirring the dark green solution was treated with 10 ml. of ammonium buffer. The color changed to yellow. The organic solvent was removed in vacuo, and the precipitate was isolated by filtration and washed with copious quantities of diethylether. The powdery material was finally dried under high vacuum. The yield was 770 mg. […] The spectra, however, were fully consistent with the structure.

human tumor cell lines = assay: Clonogenic assay against a panel of human tumor cells (Figures 1-4); format: cell-based; settings: for cytotoxicity, overall statement: clonogenic assay, no concentration given
Experimental: Clonogenic Assay. The response of a variety of human tumor cell lines to bistriazenes was determined via the clonogenic assay described in Fiebig et al. (1987) European Journal of Cancer and Clinical Oncology 23: 937-948.
(§1) Briefly, the assay system consists of a modified, two-layer soft agar culture system. The bottom layer consists of 1 ml of modified Dulbecco medium supplemented with L-glutamine, containing 10% fetal calf serum and 0.5% agar, in a 35 mm petri-dish. The upper layer contains 2-5 x 10^5 viable human tumor cells suspended in a 1 ml volume, consisting of 0.3% agar, 30% fetal calf serum, and the medium. The drugs to be tested, contained in 1 ml of medium containing 30% fetal calf serum, are included in the upper layer. Control plates are identical, except for the omission of the drugs. The plates are incubated at 37°C in a humidified atmosphere containing 7% carbon dioxide for varying periods (7-21 days). The time in culture is determined by the rate of colony formation in the control plates. At the end of the culture period, the number of colonies in the drug treated cultures is compared to the number of colonies in the control plates, after visualization of the live colonies by staining with tetrazolium chloride.
The tumors included those derived from colon cancer, three types of lung cancer, mammary cancer, ovarian cancer, two types of kidney cancer, a mesothelioma, a gastric cancer, and a sarcoma. These tumors represent some of the most important cancers for which current treatments are inadequate. For comparison, the assays of the various bistriazenes were compared to the response induced in the same tumors by DTIC, a drug employed in clinical practice.

[2] = tested on: 32P-endlabeled oligonucleotide; assay: Oligonucleotide crosslinking assay; format: biochemical; settings: 37°C, 42 hours, pH 7.4
Experimental: A solution of 6.2 ng of ^32P-endlabeled oligonucleotide in 0.1 M cacodylic acid buffer (0.1 M NaCl, pH 7.4) was allowed to react with the desired compound dissolved in 1/10 volume DMSO. Final concentrations of the compounds in the oligonucleotide solution were 0.1 mM NMUST, 1.0 mM CCNU, or 10 mM bistriazene. Reactions were incubated at 37°C for 42 hours, and analyzed by denaturing polyacrylamide gel electrophoresis (20% gel) followed by autoradiography. the gels were intentionally overexposed to better visualize bands corresponding to interstrand crosslinks. Large amounts of unreacted oligonucleotides were also visualized under these conditions.

LXFL 529 = assay: Clonogenic assay (two-layer soft agar culture); format: cell-based; settings: Homo sapiens
Experimental: as §1

PRCL DU145X = assay: Clonogenic assay (two-layer soft agar culture); format: cell-based; settings: Homo sapiens, read-out: Test/Control (%) at Drug Concentration (µg/ml)
Experimental: as §1

RXF 1220 = assay: Clonogenic assay (two-layer soft agar culture); format: cell-based; settings: Homo sapiens, read-out: Test/Control (%) at Drug Concentration (µg/ml)
Experimental: as §1

[3] = 1 ug/ml, panel of human tumor cell lines
[4] = 10 ug/ml, panel of human tumor cell lines
[5] = 100 ug/ml, panel of human tumor cell lines
[6] = LXFL 529, read-out: Test/Control (%) at Drug Concentration (µg/ml)
[7] = 1.0 µg/ml, LXFL 529 large cell lung cancer line, read-out: Test/Control (%) at Drug Concentration (µg/ml)
[8] = 10.0 µg/ml, LXFL 529 large cell lung cancer line, read-out: Test/Control (%) at Drug Concentration (µg/ml)
[9] = 100.0 µg/ml, LXFL 529 large cell lung cancer line, read-out: Test/Control (%) at Drug Concentration (µg/ml)
[10] = 1.0 µg/ml, PRCL DU145X prostate carcinoma
[11] = 10.0 µg/ml, PRCL DU145X prostate carcinoma
[12] = 100.0 µg/ml, PRCL DU145X prostate carcinoma
[13] = 1.0 µg/ml, RXF 1220 renal carcinoma
[14] = 10.0 µg/ml, RXF 1220 renal carcinoma
[15] = 100.0 µg/ml, RXF 1220 renal carcinoma

SMILES	cytotoxic activity (human tumor cell lines; [4])	cytotoxic activity (human tumor cell lines; [5])	cytotoxicity, overall statement (human tumor cell lines)	activity at 1 µg/mL (LXFL 529; [7])	activity at 10 µg/mL (LXFL 529; [8])	activity at 100 µg/mL (LXFL 529; [9])	activity at 1 µg/mL (PRCL DU145X; [10])	activity at 10 µg/mL (PRCL DU145X; [11])	activity at 100 µg/mL (PRCL DU145X; [12])	activity at 1 µg/mL (RXF 1220; [13])	activity at 10 µg/mL (RXF 1220; [14])	activity at 100 µg/mL (RXF 1220; [15])	also measured
c1ccc(NN=NCCCCN=NNc2ccccn2)nc1 [compound 14, 1,4-Bis(2-pyridyltriazeno)butane]	–	–	–	–	–	–	–	–	–	–	–	–	solubility ([1]; common solvents): poorly soluble in common solvents such as halomethanes, acetone, methanol and water; solubility ([1]; dimethylsulfoxide): sparingly soluble
CNN=NCc1ccc(CN=NNC)cc1 [bis(methyltriazeno)-p-xylene, 1,4-Bis(methyltriazenomethyl)benzene]	toxicity against approximately half of the cell lines examined	highly toxic to all tumor cell lines	–	–	–	–	–	–	–	–	–	–	cytotoxic activity (human tumor cell lines; [3]): Some activity was also evident at a dose of 1 ug/ml in about half the cell lines; interstrand crosslinking of oligonucleotides ([2]; 10 mM bistriazene, listed as p-xylyl): produce stable crosslinked species in oligonucleotides; interstrand crosslinking of oligonucleotides ([2]; 10 mM bistriazene, listed as p-xylyl bistriazene): stably covalently crosslinked
CNN=NCCN=NNC [bis(methyltriazeno)ethane, 1,2-Bis(methyltriazeno)ethane]	only marginal, but significant, activity was seen in the large cell lung cancer and in the mammary cancer	highly cytotoxic at 100 ug/ml to most of the tumor cell lines	–	–	–	–	–	–	–	–	–	–	cytotoxic activity (human tumor cell lines; 100 ug/ml, mesothelioma, gastric carcinoma, renal cancer RXF 423/17): Relatively little or no activity
CNN=NC/C=C/CN=NNC [1,4-bis(methyltriazeno)-trans-2-butene, 1,4-Bis(methyltriazeno)-trans-2-butene]	activity persisted at 10 ug/ml, especially for the large cell lung carcinoma LXFL529 and the renal cancer RXF423/17	potent cytotoxic activity against all the tumors tested	highly potent against several tumors, especially the large cell lung carcinoma	–	–	–	–	–	–	–	–	–	cytotoxic activity (human tumor cell lines; [3]): still significant activity against the lung cancer; interstrand crosslinking of oligonucleotides ([2]; 10 mM bistriazene): produce stable crosslinked species in oligonucleotides
O=P1(N(CCCl)CCCl)NC(OO)CCO1 (stereo not shown) [CYCM, 4-hydroperoxycyclophosphamide, reference compound]	–	–	–	–	–	–	–	–	–	–	–	–	activity at 1 µg/mL (LXFL 529; [6]): 115%; activity at 10 µg/mL (LXFL 529; [6]): 94%; activity at 100 µg/mL (LXFL 529; [6]): 19%; activity at 1 µg/mL (PRCL DU145X): 108%; activity at 10 µg/mL (PRCL DU145X): 90%; activity at 100 µg/mL (PRCL DU145X): 47%; activity at 1 µg/mL (RXF 1220): 67%; activity at 10 µg/mL (RXF 1220): 51%; activity at 100 µg/mL (RXF 1220): 9%
CN(C)N=Nc1[nH]cnc1C(N)=O [DTIC, 5-(3,3-dimethyltriazeno)imidazole-4-carboxamide, reference compound]	–	–	–	63%	35%	8%	70%	44%	43%	54%	44%	24%	cytotoxic activity (human tumor cell lines; 3 ug/ml, panel of human tumor cell lines): marginal activity against the gastric cancer; cytotoxic activity (human tumor cell lines; 30 ug/ml, panel of human tumor cell lines): activity against the gastric carcinoma GXF251/16 and the ovarian cancer OVXF899/9; cytotoxic activity (human tumor cell lines; 300 ug/ml, panel of human tumor cell lines): potently cytotoxic on all cell lines
c1ccc(NN=NCCN=NNc2ccccn2)nc1 [compound 15, 1,2-Bis(2-pyridyltriazeno)ethane]	–	–	–	–	–	–	–	–	–	–	–	–	solubility ([1]; common solvents): not soluble in most solvents, except dimethylsulfoxide
c1cncc(N=NNCCNN=Nc2cccnc2)c1 [Example 1a, bis(3-pyridyltriazeno)ethane]	–	–	potently cytotoxic	51%	0%	0%	84%	44%	0%	99%	74%	4%	–
c1cncc(N=NNCCCCNN=Nc2cccnc2)c1 [Example 1b]	–	–	potently cytotoxic	71%	1%	1%	94%	62%	4%	82%	70%	8%	–
O=NN(CCCl)C(=O)NC1CCCCC1 [CCNU, 1-(2-chloroethyl)-3-cyclohexyl-1-nitrosourea, reference compound]	–	–	–	–	–	–	–	–	–	–	–	–	interstrand crosslinking of oligonucleotides ([2]; 1.0 mM CCNU): not as effective at forming crosslinks as the p-xylyl bistriazene derivative

Reference: patent publication EP0626943B1, “BISTRIAZENES AS CHEMOTHERAPEUTIC AGENTS” (THE GOVERNMENT OF THE UNITED STATES OF AMERICA as …, priority 1991, dated 1993)
